Results reported in patent US20190216956A1, “COMPOSITIONS FOR RADIOTHERAPY AND USES THEREOF” (priority 2016, published 2019).
Several values for one entry are separate records, joined by “and”; a condition that tells them apart may be missing. Identical values can stand only once.

Assays:
NCI-28H cells [1] = experiment: Cytotoxicity assay (MTS) of NCI-28H cells: doxorubicin, cisplatin, paclitaxel, talc, talc bound to drugs (Example 21); type: cell-based; conditions: for AVERAGE: cells + DOX / % survival from untreated by DOX cells / % survival (cells + drug) / Average readings: cells + drug / Average reading: cells + cisplatin / % survival from untreated cells (cells + cisplatin): NCI-28H cells; for AVERAGE: cells + DOX / Average readings: cells + drug / Average reading: cells + cisplatin: absorbance 490 nm
Procedure: Read absorbance (MTS assay) and calculate cells survival rate. Compare survival rate between each formulation.
1. Set up 3 cytotoxicity plates for Day 2 experiment: trypsinize NCI-28H cells (T-75 flask, passage 12): • Remove old medium, wash cells with 7 ml DPBS, remove DPBS, add 2 ml trypsin, incubate plates for 1-2′, when cells detached add 6 ml fresh medium, mix cells and medium. • Count cells under the microscope using the glass slide. […] If we need 200 wells, in each well will be 5,000 cells in 0.1 ml; so total we need 1,000,000 cells in 20 ml. […] In 50 ml Falcon tube, combine 16.6 ml fresh medium and 3.4 ml cells. Gently mix.
3. […] Final solution is 500 μL of 20 μM.
(§1) 1. Centrifuge tubes at 3200 rpm for 3 min. Take out supernatant.
6. Check the plate and start incubation at 37° C./5% CO2
3. Wash cells 1×300 μL media, remove final wash.

NCI-2052H cells = experiment: Cytotoxicity assay (MTS) of NCI-2052H cells: bleomycin, mitomycin, doxorubicin, paclitaxel, talc, talc bound to drugs (Example 23); type: cell-based; conditions: for Average reading: cells + drug, paclitaxel: absorbance 490 nm
NCI-28H cells [2] = experiment: Cytotoxicity assay (MTS) of NCI-28H cells: carboplatin, mitomycin, gemcitabine, talc, talc bound to drugs (Example 22); conditions: for % survival from untreated cells: cells + drug, carboplatin / Average reading: cells + drug, carboplatin / % survival from untreated cells: cells + drug, gemcitabine / Average reading: cells + drug, gemcitabine: NCI-28H cells; for Average reading: cells + drug, carboplatin / Average reading: cells + drug, gemcitabine: absorbance 490 nm
Procedure: Read absorbance (MTS assay) and calculate cells survive rate. Compare survival rate
1. Set up 3 cytotoxicity plates for tomorrow experiment: trypsinize NCI-28H cells (T-75 flask, passage 12): • Remove old medium, wash cells with 7 ml DPBS, remove DPBS, add 2 ml trypsin, incubate plates for 1-2′, when cells detached add 6 ml fresh medium, mix cells and medium. • Count cells under the microscope using the glass slide. […] If we need 200 wells, in each well will be 5,000 cells in 0.1 ml; so total we need 1,000,000 cells in 20 ml.
2. […] Final solution is 500 μL of 500 μM carboplatin.
4. […] Final solution is 500 μL of 200 μM Gemcitabine.
as §1
3. Add 100 μL of each 8 preparations of diluted carboplatin (step 1 and 2) to the proper wells according to a plate layout.
4. Add 100 μL of each 8 preparations of diluted Gemcitabine (step 1, 2, 3) to the proper wells according to a plate layout.
6. Check the plate and start incubation at 37° C./5% CO2.
3. Wash all cells 1×300 μL DPBS, remove final wash.

COc1cccc2c1C(=O)c1c(O)c3c(c(O)c1C2=O)C[C@@](O)(C(=O)CO)C[C@@H]3O[C@H]1C[C@H](N)[C@H](O)[C@H](C)O1 [DOX]
% survival NCI-28H cells after different treatment (compare to untreated cells) (NCI-28H cells [1]; 125 nM DOX): 70%
AVERAGE: cells + DOX (NCI-28H cells [1]; DOX 0.000064 μM): 1.18
AVERAGE: cells + DOX (NCI-28H cells [1]; DOX 0.2 μM): 0.89
AVERAGE: cells + DOX (NCI-28H cells [1]; DOX 1 μM): 0.67
AVERAGE: cells + DOX (NCI-28H cells [1]; DOX 5 μM): 0.63

COc1cccc2c1C(=O)c1c(O)c3c(c(O)c1C2=O)C[C@@](O)(C(=O)CO)C[C@@H]3O[C@H]1C[C@H](N)[C@H](O)[C@H](C)O1 [Dox]
% survival from untreated by DOX cells (NCI-28H cells [1]; Dox 0.064 nM): 86.3%
% survival from untreated by DOX cells (NCI-28H cells [1]; Dox 8 nM): 83.4%
% survival from untreated by DOX cells (NCI-28H cells [1]; Dox 40 nM): 77.4%
% survival from untreated by DOX cells (NCI-28H cells [1]; Dox 200 nM): 65.0%
% survival from untreated by DOX cells (NCI-28H cells [1]; Dox 1000 nM): 48.6%
% survival from untreated by DOX cells (NCI-28H cells [1]; Dox 5000 nM): 46.2%

CC(=O)O[C@H]1C(=O)[C@@]2(C)[C@H]([C@H](OC(=O)c3ccccc3)[C@]3(O)C[C@H](OC(=O)[C@H](O)[C@@H](NC(=O)c4ccccc4)c4ccccc4)C(C)=C1C3(C)C)[C@]1(OC(C)=O)CO[C@@H]1C[C@@H]2O [Paclitaxel]
Average reading: cells + drug, paclitaxel (NCI-2052H cells; Paclitaxel 0.256 nM): 1.4273
Average reading: cells + drug, paclitaxel (NCI-2052H cells; Paclitaxel 6.4 nM): 1.54
Average reading: cells + drug, paclitaxel (NCI-2052H cells; Paclitaxel 32 nM): 0.5818
Average reading: cells + drug, paclitaxel (NCI-2052H cells; Paclitaxel 160 nM): 0.4361
Average reading: cells + drug, paclitaxel (NCI-2052H cells; Paclitaxel 800 nM): 0.4326
Average reading: cells + drug, paclitaxel (NCI-2052H cells; Paclitaxel 4000 nM): 0.553
Average reading: cells + drug, paclitaxel (NCI-2052H cells; Paclitaxel 20,000 nM): 0.1647
% survival from untreated cells (NCI-2052H cells; paclitaxel 0.256 (nM per Table 97)): 83.84%
% survival from untreated cells (NCI-2052H cells; paclitaxel 1.28 (nM per Table 97)): 93.24%
% survival from untreated cells (NCI-2052H cells; paclitaxel 6.4 (nM per Table 97)): 90.43%
% survival from untreated cells (NCI-2052H cells; paclitaxel 32 (nM per Table 97)): 34.17%
% survival from untreated cells (NCI-2052H cells; paclitaxel 160 (nM per Table 97)): 25.61%
% survival from untreated cells (NCI-2052H cells; paclitaxel 800 (nM per Table 97)): 25.41%
% survival from untreated cells (NCI-2052H cells; paclitaxel 4000 (nM per Table 97)): 32.48%
% survival from untreated cells (NCI-2052H cells; paclitaxel 20,000 (nM per Table 97)): 9.67%
% survival (cells + drug) (NCI-28H cells [1]; Paclitaxel 0.13 nM): 102.50%
Average readings: cells + drug (NCI-28H cells [1]; Paclitaxel 0.13 nM): 1.56
% survival (cells + drug) (NCI-28H cells [1]; Paclitaxel 0.68 nM): 86.98%
Average readings: cells + drug (NCI-28H cells [1]; Paclitaxel 0.68 nM): 1.33
% survival (cells + drug) (NCI-28H cells [1]; Paclitaxel 3.5 nM): 89.85%
Average readings: cells + drug (NCI-28H cells [1]; Paclitaxel 3.5 nM): 1.37
% survival (cells + drug) (NCI-28H cells [1]; Paclitaxel 16 nM): 84.47%
Average readings: cells + drug (NCI-28H cells [1]; Paclitaxel 16 nM): 1.29
% survival (cells + drug) (NCI-28H cells [1]; Paclitaxel 80 nM): 71.81%
Average readings: cells + drug (NCI-28H cells [1]; Paclitaxel 80 nM): 1.10
% survival (cells + drug) (NCI-28H cells [1]; Paclitaxel 400 nM): 66.39%
% survival (cells + drug) (NCI-28H cells [1]; Paclitaxel 2000 nM): 62.43%
% survival (cells + drug) (NCI-28H cells [1]; Paclitaxel 10,000 nM): 60.71%

N.N.O=C([O-])C1(C(=O)[O-])CCC1.[Pt+2] [carboplatin]
% survival from untreated cells: cells + drug, carboplatin (NCI-28H cells [2]; carboplatin 0.006 μM): 90.84% and 94.28%
Average reading: cells + drug, carboplatin (NCI-28H cells [2]; carboplatin 0.006 μM): 1.504
% survival from untreated cells: cells + drug, carboplatin (NCI-28H cells [2]; carboplatin 0.8 μM): 85.98% and 87.53%
Average reading: cells + drug, carboplatin (NCI-28H cells [2]; carboplatin 0.8 μM): 1.4238
% survival from untreated cells: cells + drug, carboplatin (NCI-28H cells [2]; carboplatin 4 μM): 96.93% and 93.62%
Average reading: cells + drug, carboplatin (NCI-28H cells [2]; carboplatin 4 μM): 1.605
% survival from untreated cells: cells + drug, carboplatin (NCI-28H cells [2]; carboplatin 20 μM): 104.81% and 99.20%
Average reading: cells + drug, carboplatin (NCI-28H cells [2]; carboplatin 20 μM): 1.7355
% survival from untreated cells: cells + drug, carboplatin (NCI-28H cells [2]; carboplatin 100 μM): 83.82% and 79.53%
Average reading: cells + drug, carboplatin (NCI-28H cells [2]; carboplatin 100 μM): 1.388
% survival from untreated cells: cells + drug, carboplatin (NCI-28H cells [2]; carboplatin 500 μM): 37.38% and 35.14%
Average reading: cells + drug, carboplatin (NCI-28H cells [2]; carboplatin 500 μM): 0.6189

N.N.[Cl][Pt][Cl] [cisplatin]
Average reading: cells + cisplatin (NCI-28H cells [1]; Cisplatin 0.0013 μM): 1.37
Average reading: cells + cisplatin (NCI-28H cells [1]; Cisplatin 0.0064 μM): 1.19
Average reading: cells + cisplatin (NCI-28H cells [1]; Cisplatin 0.8 μM): 1.23
Average reading: cells + cisplatin (NCI-28H cells [1]; Cisplatin 4 μM): 1.18
Average reading: cells + cisplatin (NCI-28H cells [1]; Cisplatin 20 μM): 0.48
Average reading: cells + cisplatin (NCI-28H cells [1]; Cisplatin 100 μM): 0.59
% survival from untreated cells (cells + cisplatin) (NCI-28H cells [1]; cisplatin 0.0013 (μM per Table 64)): 91.07%
% survival from untreated cells (cells + cisplatin) (NCI-28H cells [1]; cisplatin 0.0064 (μM per Table 64)): 79.21%
% survival from untreated cells (cells + cisplatin) (NCI-28H cells [1]; cisplatin 0.032 (μM per Table 64)): 76.66%
% survival from untreated cells (cells + cisplatin) (NCI-28H cells [1]; cisplatin 0.16 (μM per Table 64)): 79.74%
% survival from untreated cells (cells + cisplatin) (NCI-28H cells [1]; cisplatin 0.8 (μM per Table 64)): 82.09%
% survival from untreated cells (cells + cisplatin) (NCI-28H cells [1]; cisplatin 4 (μM per Table 64)): 78.41%
% survival from untreated cells (cells + cisplatin) (NCI-28H cells [1]; cisplatin 20 (μM per Table 64)): 31.99%
% survival from untreated cells (cells + cisplatin) (NCI-28H cells [1]; cisplatin 100 (μM per Table 64)): 39.35%

Nc1ccn([C@@H]2O[C@H](CO)[C@@H](O)C2(F)F)c(=O)n1 [gemcitabine]
cytotoxic effect on NCI-28H cells (comparison) (NCI-28H cells [2]): clear cytotoxic effect
% survival from untreated cells: cells + drug, gemcitabine (NCI-28H cells [2]; gemcitabine 0.0026 μM): 114.61%
Average reading: cells + drug, gemcitabine (NCI-28H cells [2]; gemcitabine 0.0026 μM): 2.034
% survival from untreated cells: cells + drug, gemcitabine (NCI-28H cells [2]; gemcitabine 0.013 μM): 107.85%
Average reading: cells + drug, gemcitabine (NCI-28H cells [2]; gemcitabine 0.013 μM): 1.914
% survival from untreated cells: cells + drug, gemcitabine (NCI-28H cells [2]; gemcitabine 0.064 μM): 80.60%
Average reading: cells + drug, gemcitabine (NCI-28H cells [2]; gemcitabine 0.064 μM): 1.43
% survival from untreated cells: cells + drug, gemcitabine (NCI-28H cells [2]; gemcitabine 8 μM): 56.58%
Average reading: cells + drug, gemcitabine (NCI-28H cells [2]; gemcitabine 8 μM): 1.004
% survival from untreated cells: cells + drug, gemcitabine (NCI-28H cells [2]; gemcitabine 40 μM): 60.09%
Average reading: cells + drug, gemcitabine (NCI-28H cells [2]; gemcitabine 40 μM): 1.0663
% survival from untreated cells: cells + drug, gemcitabine (NCI-28H cells [2]; gemcitabine 200 μM): 52.70%
Average reading: cells + drug, gemcitabine (NCI-28H cells [2]; gemcitabine 200 μM): 0.9352

talc
cytotoxic effect on NCI-28H cells (comparison) (NCI-28H cells [2]): clear cytotoxic effect
